# Reference: patent US20210369155A1, “Analyte Sensors and Sensing Methods for Detecting Inhibitors of Diaphorase” (Abbott Diabetes Care Inc., priority 2020, published 2021)
# What was measured:
# Diaphorase [1] = experiment: Inhibition of diaphorase by dicoumarol: NADH and dicoumarol titrated into PBS exposed to diaphorase-coated carbon working electrodes; assay type: biochemical
# Description: (§1) Example 1: Inhibition of Diaphorase by Dicoumarol. For this example, the spotting formulations shown in Table 1 below were coated onto separate carbon working electrodes. A micro-syringe was use to deposit 35 nL of each formulation as a single spot having an area of around 0.2 mm^2 upon separate carbon working electrodes. Following deposition, the working electrodes were cured overnight at 25° C.
# The electrodes were exposed to fresh phosphate buffered saline (PBS) solutions, and varying amounts of NADH and dicoumarol were then titrated into the buffered solutions. No glucose or GDH was added to “power” the sensors and complete the enzyme system specified above (FIG. 3B). […] To the buffered solution containing 30 μM NADH was then titrated dicoumarol up to a concentration of 100 μM. […] FIG. 10 is a graph showing the results of titrating NADH and dicoumarol (DCM) into PBS solutions exposed to the analyte sensors of Example 1 (Sensors 1-4). […] A higher signal resulted for Sensor 2 as a result of its higher concentration of diaphorase. Given the goal of making the sensor response to be diaphorase limited, further optimization work centered around optimizing the sensor response at a low-concentration loading of the diaphorase. […]
# Diaphorase [2] = experiment: Detection of dicoumarol with sensors whose active area holds glucose dehydrogenase, NAD and rate-limiting diaphorase: glucose and dicoumarol titrated into PBS; assay type: biochemical; conditions: Sensors 5-8; PBS with 500 μM NAD, glucose up to 50 μM; DCM titrated up to 160 μM
# Description: as §1, with “2: Detection” for “1: Inhibition”, “Dicoumarol Using an Analyte Sensor Having an Active Area with Glucose Dehydrogenase and a Rate-Limited Electron Transfer to the Working Electrode.” for “Diaphorase by Dicoumarol.”, “2” for “1”
# Glucose and dicoumarol were then titrated to PBS solutions in which the sensors were immersed. A 500 μM quantity of NAD was first added to the buffer solution, followed by three additions of glucose up to 50 μM. Thereafter, dicoumarol (DCM) was titrated up to 160 μM. FIGS. 14A and 14B are graphs showing the results of titrating glucose and dicoumarol (DCM) into PBS solutions exposed to electrodes having variable amounts of NAD-dependent glucose dehydrogenase in an active area thereon. […] As shown, increasing amounts of glucose dehydrogenase increased the signal response during glucose addition and during DCM addition.
smiles,measurement,setting,value
O=c1oc2ccccc2c(O)c1Cc1c(O)c2ccccc2oc1=O [dicoumarol],"normalized sensor response as a function of dicoumarol concentration (FIGS. 11A, 11B, 13)","Diaphorase [1]; 0.2 mg/mL diaphorase, 0.4 mg/mL electron transfer agent, NADH titrated up to 160 μM",strong inhibition
same,sensor signal as the dicoumarol concentration increased (FIG. 10),"Diaphorase [1]; only Sensors 2 and 4 (0.4 mg/mL Formula 1 polymer), PBS with 30 μM NADH, dicoumarol titrated up to 100 μM, no glucose or GDH",sudden and sensitive decrease in signal
same,"sensor current response during DCM addition (FIGS. 14A, 14B)",Diaphorase [2],response decreased as increasing amounts of DCM were added
